Like-named read-outs stand apart in the source and are kept apart here.
Tests used:
[1] = system: Reovirus III; type: cell-based
[2] = system: VSV
[3] = system: VSV; type: cell-based
[4] = system: Vaccinia virus; type: cell-based
[5] = system: VSV; type: cell-based; conditions: HeLa cells, Figure 2
[6] = system: Polio virus; type: cell-based
[7] = system: VSV; type: cell-based; remark: listed apart in the source
[8] = system: VSV; type: cell-based; conditions: 20 mM
[9] = system: VSV; type: cell-based; conditions: for Titer obtained (PFU/ml): pretreated for 2 hours, one-step growth (18 hours)
[10] = system: Sindbis virus; conditions: BHK-21 cells; 0.1 mM chloroquine or 10 µg of cytochalasin B for thirty minutes before infection; Sindbis virus 5,000 PFU; 30 or 60 minutes at room temperature; cited from earlier work
[11] = system: vesicular stomatitis virus; conditions: cited from earlier work
[12] = 20 mM, added from 2 hours before inoculation
[13] = 20 mM NH4Cl from the second hour before infection to the eighteenth hour after, Figure 7 panel A
[14] = 20 mM NH4Cl from the second hour before inoculation to the seventh hour after, Figure 5 panel A

Cl.N [NH4Cl, ammonium chloride]
development of Reovirus [1]: completely inhibits
development of Reovirus III, compared with Table I ([1]; 20 mM): Identical results
virucidal effect against VSV ([2]; 20 mM NH4Cl in PBS, incubated at 37°C, titrated at various times): no virucidal effect
viral cores and virions in supernatant ([3]; treated from the second hour before inoculation to the eighteenth hour after, Figure 3 panel B): neither viral cores nor virions
virions in supernatant ([3]; treated from the second hour before to the sixth hour after inoculation, 18 hours, versus untreated, Figure 3 panel A): lower amount
viral cores in supernatant ([3]; treated immediately after inoculation, 18 hours, versus untreated, Figure 3 panel B): lower level
viral development of Vaccinia [4, 12]: No action
Virions produced in infected 20mM NH4Cl* treated cells ([4]; L cells, Vaccinia virus, 20 mM NH4Cl from 2 hours before inoculation, end of one step growth): 3.5 x 10^6PFU/ml
lag period before rather normal viral RNA synthesis ([5]; 20 mM NH4Cl from 2 hours before inoculation, withdrawal at the sixth hour after inoculation): 6 h
viral RNA synthesis ([5]; 20 mM NH4Cl from 2 hours before to 18 hours after inoculation): seriously reduced
viral RNA synthesis ([5]; 20 mM NH4Cl only added after inoculation, until 18 hours): strongly reduced
viral development of Polio virus [6, 12]: No action
Virions produced in infected 20mM NH4Cl* treated cells ([6]; BGM cells, Polio virus, 20 mM NH4Cl from 2 hours before inoculation, end of one step growth): 4.15 x 10^8PFU/ml
infection (viral m RNAs and 42S mature RNA in cytoplasmic extracts) ([7]; 20 mM NH4Cl from immediately after inoculation to the eighteenth hour after, Figure 7 panel B): slight reduction
42S viral RNA in cytoplasmic extracts [7, 13]: do not contain
viral m RNAs in cytoplasmic extracts [7, 13]: do not contain
amount of 42S mature viral RNA in cytoplasmic extracts ([7]; 20 mM NH4Cl from the second hour before infection to the sixth hour after, 18 hours after infection, Figure 6 panel B): lower than in untreated cells
viral m RNAs (31S, 17S, 14.5S, 12S) in cytoplasmic extracts ([7]; 20 mM NH4Cl from the second hour before infection to the sixth hour after, 18 hours after infection, versus untreated, Figure 6 panel B): more
complete virus (625S) in cytoplasmic extract [7, 14]: large amount
viral cores (120s) in cytoplasmic extract [7, 14]: negligible amount
development of VSV ([8]; added from 2 hours before inoculation): completely inhibits
development of VSV, compared with Table I ([8]; in L, BHK, and BGM cells): Identical results

Cc1cc2nc3ccc(N(C)C)cc3nc2cc1N.Cl [Neutral Red]
Titer obtained (PFU/ml) ([9]; 70 µM Neutral Red): 9.0 x 10^7 PFU/ml
growth of VSV ([9]; 100 µM (29 µg/ml)): completely inhibits
Titer obtained (PFU/ml) ([9]; 100 µM Neutral Red): 0 PFU/ml
virucidal effect ([2]; procedure of Example III, at these concentrations (70 µM and 100 µM)): no virucidal effect

CCN(CC)CCCC(C)Nc1ccnc2cc(Cl)ccc12 (centres unmarked) [chloroquine]
internalization by endocytosis of the virus [10]: either enhanced or took place normally

C=C1[C@@H](C)[C@H]2[C@H](Cc3ccccc3)NC(=O)[C@]23OC(=O)/C=C/[C@H](O)CCC[C@@H](C)C/C=C/[C@H]3[C@@H]1O [cytochalasin B]
yields of VSV [11]: the same as untreated (control) cells
internalization by endocytosis of the virus [10]: blocked
